Experimental data published in patent US8729107B2, “Pyridines for treating injured mammalian nerve tissue” (Purdue Research Foundation, priority 2002, dated 2014).
Where two headings read alike, the source gives them in different places.

Legend:
[1] = test system: injured guinea pig spinal cord white matter; conditions: for increase in the amplitude of the recovered CAP: pre-drug recovered CAP normalized to 100%; for CAP amplitude after removal of the drug and wash: FIG. 8 electrical records, after washout; for CAP relative to pre-drug level: at the concentrations studied; for concentration producing recovery of CAP conduction (effective/working concentration): drug added to bathing medium of central chamber
[2] = test system: guinea pigs with compression injury to the mid-thoracic spinal cord; type: in vivo; conditions: for failures to respond: by 4 hours after gavage; for Mean recovered EP (area beneath recovered EP normalized to pre-injury): gavage at 1 week post injury, Table 1; for tolerability of gavage: oral insertion in sedated guinea pigs; for effective dosage producing improvement in the electrophysiological record: gavage
Description: “Somatosensory evoked potential testing (SSEP)” is a means of measuring ascending nerve impulse “traffic” in a “whole” animal. […] These volleys of evoked potentials are initiated by electrical stimulation of the tibial nerve of the hind leg of an animal, which induces ascending sensory volleys of nociceptive impulses to the contralateral sensory cortex of the brain in the intact animal. A severe spinal cord injury eliminates the ability of evoked potentials to cross the lesion and thus SSEPs are not recorded at the brain after lesioning. Quantitative evaluation of the recovery of SSEP conduction through the whole animal provides a more relevant indicator of the feasibility of these compounds to be useful in reversing behavioral loss after specific, localized, and standardized CNS injury. To eliminate the possibility that the failure to record SSEPs could be due to other factors, a control recording is carried out using the median nerve of the foreleg. Since this neural circuit is completely intact (that is—“above” the level of the spinal injury) normal SSEPs must be obtained after such “control” stimulation. FIG. 2 is a diagram of this testing protocol and provides examples of normal recordings in intact animals, the elimination of sensory impulses after a mid-thoracic spinal cord injury, and explains these issues in detail, as well as, emphasizing the importance of a median nerve control procedure.
During live animal testing using guinea pigs, novel pyridine derivatives of the instant invention were administered through a gastric tube to large adult guinea pigs which had previously received a standardized compression injury to their mid-thoracic spinal cords. The ability of these compounds to restore conduction in this second technique was determined by a quantitative evaluation of SSEPs. The following protocols and routes of administration were employed.
Prior to spinal cord injury, fully adult guinea pigs (Hardy strain, around 400 g) were lightly sedated with an intramuscular injection of Ketamine/Rompum and rendered immobile during the placement of stimulation and recording electrodes as illustrated in FIG. 2. A series of SSEP records were then taken subsequent to both tibial and median nerve stimulation in this normal animal. It should be noted here that all surgical procedures and physiological recordings were carried out on anesthetized animals. All animal studies were carried out under protocols approved by the University Animal Care and Use Committee, under strict adherence to University, State, and Federal guidelines for the use of animals in research.
Subsequently, a dorsal laminectomy surgical procedure was carried out exposing the dorsal (posterior) region of the mid-thoracic spinal cord within the vertebral column, the tough covering of the spinal cord (the dura) incised and removed, and the cord crushed by a standardized technique (constant displacement compression. Blight A R (1991a), Morphometric analysis of a model of spinal cord injury in guinea pigs, with behavioral evidence of delayed secondary pathology, J Neurol Sci 103:156-171; Borgens R B, Shi R, Bohnert D (2002), Behavioral recovery from spinal cord injury following delayed application of polyethylene glycol, J Exp Biol 205:1-12, both incorporated herein by reference.
[…] However, periodically physiological records were taken to monitor their status—and a final record at around 2 months post injury to confirm the chronic loss of ascending SSEP conduction through the mid-thoracic lesion.
After 8 weeks had elapsed and a “pre-drug application” electrical record obtained, the guinea pigs were lightly sedated and a test compound was administered directly into the stomach by a gastric tube (compounds were undissolved during introduction to the stomach, however, the gastric tube and any remnants of the compounds were flushed into the stomach by secondary introduction of less than 1 ml of distilled water). […]

[3] = test system: paralyzed persons with spinal cord injury; conditions: cited from earlier work
[4] = test system: delayed rectifier current Idr in guinea pig DRG cells; assay: Whole cell patch-clamp recording of isolated delayed rectifier current; type: cell-based; conditions: depolarization holding potential; data not shown
[5] = test system: fast potassium channels (IA) in guinea pig DRG cells; assay: Whole cell patch-clamp recording of voltage-gated potassium currents (Itotal, fast component IA); type: cell-based; conditions: for effect on fast potassium current (initial peak of Itotal): 5 mM in bath solution; for peak (fast activated) potassium current amplitude after treatment: 5 mM in bath, command potential +30 mV

| Structure (SMILES) | indication of toxicity [1] | enhancement of CAP conduction ([1]; 100 uM) | increase in the amplitude of the recovered CAP ([1]; 100 uM) [%] | CAP amplitude after removal of the drug and wash [1] | CAP relative to pre-drug level [1] | concentration producing recovery of CAP conduction (effective/working concentration) [1] | recovery of EP compared to 4-AP ([2]; 1 week post injury) | failures to respond [2] | Mean recovered EP (area beneath recovered EP normalized to pre-injury) [2] | tolerability of gavage [2] | effective dosage producing improvement in the electrophysiological record [2] [mg/kg] | inhibition of Idr [4] | effect on fast potassium current (initial peak of Itotal) [5] | peak (fast activated) potassium current amplitude after treatment [5] | also measured |
| --- | --- | --- | --- | --- | --- | --- | --- | --- | --- | --- | --- | --- | --- | --- | --- |
| CCOC(=O)Nc1ccncc1 [ethyl carbamate (2), N-(4-Pyridyl)Ethyl Carbamate] | without any indication of toxicity | enhanced CAP conduction significantly | 18.6±8.7 | fallen back to pre-drug levels | increase in CAP above the pre-drug level | approximately 100 uM | did not meet significance | no failures to respond | 41.5 | uneventful | – | – | – | – | recovery of CAP relative to 4-AP ([1]; 100 uM): slightly lower recovery of CAP than 4-AP; increase in the amplitude of the CAP in example electrical record ([1]; FIG. 8 panel A, about 1/2 hour after addition): ~20%; concentration producing recovery of CAP conduction (effective/working concentration) ([1]; listed as carbamate (2)): 100 µM |
| Nc1ccncc1 [4-AP, 4-aminopyridine, reference compound] | – | – | – | – | – | 100 µM | – | Two of the ten animals failed to respond | 40.0 | uneventful | 0.47±0.04 | did not significantly inhibit | largely blocked | 2,574.91±446.8 pA | side effects at the concentrations required ([3]; human patients): numerous unwanted side effects; share of treated population with clinically meaningful recoveries of function ([3]; paralyzed persons): about 30% |
| CC(C)(C)OC(=O)Nc1ccncc1 [t-butyl carbamate (1), N-(4-Pyridyl) t-Butyl Carbamate] | without any indication of toxicity | – | – | – | increase in CAP above the pre-drug level | 1 µM | significantly enhanced | no failures to respond | – | not tolerated | – | – | – | – | enhancement of CAP conduction ([1]; 1 uM): enhance CAP conduction significantly; increase in recovery CAP amplitude ([1]; printed 'at uM', n=5, relative to pre-drug CAP): 15.4±3.4% |
| Nc1ccncc1CO [4-AP-3-MeOH, 4-aminopyridine-3-methanol] | – | – | – | – | – | – | – | – | – | – | – | did not significantly inhibit | inhibit the fast potassium currents | 2,434.20±543.4 pA | increase of CAP conduction (not significant) ([1]; 0.01 μM, stretch-injured cord, mean±SE, n=5): 6.44±3.8%; increase of CAP conduction ([1]; 0.1 μM, stretch-injured cord, mean±SE, n=7): 12.73±3.2%; increase of CAP conduction ([1]; 1 μM, stretch-injured cord, mean±SE, n=6): 11.27±4.2%; increase of CAP conduction ([1]; 10 μM, stretch-injured cord, mean±SE, n=11): 13.35±5.9%; effect on CAP activation threshold ([1]; 100 μM, stimulus intensities 1.85 to 6.5 V): does not have a significant effect; CAP conduction across stimulus intensities ([1]; 100 μM, stimulus intensities 1.85 to 6.5 V, data not shown): increased CAP conduction at all stimuli intensity levels; increase of CAP conduction ([1]; 100 μM, stretch-injured cord, mean±SE, n=6): 21.51±4.5%; increase of CAP conduction (not significant) ([1]; 1 mM, stretch-injured cord, mean±SE, n=5): 6.72±8.3%; suppression of CAP conduction ([1]; 10 mM, stretch-injured cord, mean±SE, n=5): 18.48±8.1%; effect on axonal response to dual or multiple stimuli ([1]; injured spinal cord tissue): does not have a significant effect; effect on IA over step voltage commands ([5]; step voltage commands from −50 to 40 mV): suppresses IA |
| COC(=O)Nc1ccncc1 [methyl carbamate (3), N-(4-Pyridyl)Methyl Carbamate] | – | enhanced CAP conduction significantly | 30.6±11.7 | approximate pre-drug levels | – | – | – | – | 78.0 | uneventful | 0.37±0.2 | – | – | – | concentration producing recovery of CAP conduction (effective/working concentration) ([1]; listed as Methyl carbamate (3)): approximately 100 uM; concentration producing recovery of CAP conduction (effective/working concentration) ([1]; listed as carbamate (3)): 100 µM; cortical potential (P1) after administration ([2]; FIG. 3, 1 hour after gastric tube administration, 1 week post injury): nearly normal cortical potential |
